The results in this text go back to patent US20260077009A1, “COMPOSITIONS AND METHODS FOR TREATING NEUROLOGICAL DISORDERS” (Neurotech International Ltd, priority 2021, published 2026).

Series [1] is described as follows: Stability of NTI164 in oil at room temperature (UPLC, weekly assay, CBDA as marker).
Series [2] has as its system IL-12. The series can be described thus: Multiplex cytokine/chemokine assay, IL-12. The note with it: 2 μg/ml; Interleukin and Interferon activation; control 99.91. It counts as cell-based, human. The protocol:
(§1) Multiplex Cytokine/Chemokine Assay: Microglia media harvested following treatment initiation was centrifuged briefly to remove particulates (300 g for 10 min). Cytokine and chemokine levels in the microglial media were measured using a Bio-Plex 200 with a 96-well magnetic plate assay according to the manufacturer's instructions (Bio-Rad). Cytokines and chemokines measured included IL-1α, IL-1β, IL-2, IL-6, IL-10, IL-12 (p70), IL-13, G-CSF, GM-CSF, IFNγ, TNFα, CXCL1 (KC), CCL2 (MCP-1), and CCL5 (RANTES). All samples were run in duplicate and data were analyzed with the Bio-Plex Manager software.
(§2) The tubes are then placed in a sonication bath for 10 mins at 35-40 C. Upon completion of the sonication samples are then placed in a tray shaker (200 rpm) for 30 minutes at room temperature. Once completed the samples are then centrifuged at 4400 rpm for 5 minutes. The supernatant is collected for testing and development.
(§3) For the CBD sample, a pure standard (in powder form) was used. CBD 98% isolate was purchased as a reference standard from LGC Standards (London UK) (CAS No. 13956-29-1). The CBD standard reference was prepared at concentration of 1 mg/ml (in acetonitrile). CBD dilutions were made in acetonitrile as follows: 2 μg/ml; 6 μg/ml; and 0.1 μg/ml.

The test system of series [3] is COX-2. The series can be described thus: COX-2 immunohistochemistry (protein level) assay in microglial cells. It is filed as cell-based, human. The note with it: 2 μg/ml, N=9. The protocol:
Immunohistochemistry (Protein Level) Assay: Cells were fixed for 10 min with 4% paraformaldehyde (PFA) in PBS. After 3×5 minutes washing with PBS, cells were incubated with primary antibodies (anti-COX2) 1:1000 overnight at 4° C., and after 3×5 minutes washing in PBS, cells were then incubated in appropriate fluorescent secondary antibody 1:250 (Invitrogen) for 2 hours at room temperature. After a final wash, as previous, cells nuclei were sained with DAPI in the mounting media. Photomicrographs were taken of the cells in three fields of view per well from duplicate wells and analysed using Fiji for area coverage of each marker.
as §2, §3

Series [4] has as its system neurons. The series can be described thus: Cell death in an excitotoxic cell injury paradigm. It counts as cell-based. As to conditions: excitotoxic cell injury paradigm (glutamate 3 mM); 2 μg/ml. The protocol: Neuronal viability was quantified using MTT [3-(4,5-dimethylthiazol-2-yl-)-2,5-diphenyl-2H-tetrazolium bromide; Sigma]. […] Cellular excitotoxicity was achieved via glutamate activation (3 mM).

Series [5] deals with TNF-alpha. In words: Multiplex cytokine/chemokine assay, TNF-alpha. It counts as cell-based, human. The note with it: 2 μg/ml; Interleukin and Interferon activation. The method, then: as §1, §2, §3

Each structure is given as a SMILES string. Some results are limits rather than exact numbers.

On to `CCCCCc1cc2c(c(O)c1C(=O)O)[C@@H]1C=C(C)CC[C@H]1C(C)(C)O2` [(Tetrahydrocannabinolic acid) (D9-THCA), Tetrahydrocannabinolic acid], for which the “Cannabinoid concentration in NTI164 (sample 28206-7)” value (from here on “Cannabinoid concentration in NTI164”) turned out to be 0.66 mg/mL in series [1] (Day 0 (13 Jul. 2021)); 0.72 mg/mL in series [1] (Day 2 (15 Jul. 2021)); 0.64 mg/mL in series [1] (Day 7 (20 Jul. 2021)); 0.69 mg/mL in series [1] (Day 14 (29 Jul. 2021)); 0.36 mg/mL in series [1] (Day 28 (12 Aug. 2021)); 0.79 mg/mL in series [1] (Week 5 (19 Aug. 2021)). The results for the “Cannabinoid concentration in NTI164” value in series [1] (Week 6 (27 Aug. 2021)) and in series [1] (Week 32 (12 Sep. 2022)) were 0.73 mg/mL and below 0.1 mg/mL, respectively.

`C=C(C)[C@@H]1CCC(C)=C[C@H]1c1c(O)cc(CCCCC)cc1O` [CBD, Cannabidiol, reference compound]: the “Cannabinoid concentration in NTI164” value is on record as 0.46 mg/mL in series [1] (Day 0 (13 Jul. 2021)); 0.56 mg/mL in series [1] (Day 2 (15 Jul. 2021)); 0.53 mg/mL in series [1] (Day 7 (20 Jul. 2021)); 0.56 mg/mL in series [1] (Day 14 (29 Jul. 2021)); 0.54 mg/mL in series [1] (Day 28 (12 Aug. 2021)); 0.60 mg/mL in series [1] (Week 5 (19 Aug. 2021)). The “Cannabinoid concentration in NTI164” value turned out to be 0.51 mg/mL in series [1] (Week 6 (27 Aug. 2021)) and 0.48 mg/mL in series [1] (Week 32 (12 Sep. 2022)). Also, in series [2], the “IL-12, Average +/- Standard Deviation (SD)” value is listed as 84.40 +/− 6.54. In addition, the “COX-2 expression, Avg +/- SEM” value in series [3] (exposure 1 hour after inflammatory insult (Interleukin and Interferon gamma), positive control 104.26) is recorded as 76.32 +/− 7.95 (SEM); in series [3] (exposure 1 hour prior to inflammatory insult (Interleukin and Interferon gamma), positive control 94.47) it was 84.82 +/− 7.65 (SEM). Further, the “Cell death / toxicity” value in series [4] is reported as “toxic”. Further, the “TNF-alpha, Average +/- Standard Deviation (SD)” value in series [5] is 71.13 +/− 12.81.

In the case of `CCCCCc1cc(O)c2c(c1)OC(C)(CCC=C(C)C)C=C2` (stereo not drawn) [Cannabichrome (CBC), Cannabichrome], the “Cannabinoid concentration in NTI164” value in series [1] (Day 0 (13 Jul. 2021)) was 1.23 mg/mL; in series [1] (Day 2 (15 Jul. 2021)), 1.19 mg/mL; in series [1] (Day 7 (20 Jul. 2021)), 1.34 mg/mL; in series [1] (Day 14 (29 Jul. 2021)), 1.22 mg/mL; in series [1] (Day 28 (12 Aug. 2021)), 1.27 mg/mL; in series [1] (Week 5 (19 Aug. 2021)), 1.20 mg/mL. The “Cannabinoid concentration in NTI164” value in series [1] (Week 6 (27 Aug. 2021)) is 1.15 mg/mL; in series [1] (Week 32 (12 Sep. 2022)), 1.22 mg/mL.

In the case of `C=C(C)[C@@H]1CCC(C)=C[C@H]1c1c(O)cc(CCCCC)c(C(=O)O)c1O` [Cannabidiol acid (CBD-A), Cannabidiol acid], the “Cannabinoid concentration in NTI164” value in series [1] (Day 0 (13 Jul. 2021)) was found to be 48.16 mg/mL; in series [1] (Day 2 (15 Jul. 2021)) it was 48.19 mg/mL; in series [1] (Day 7 (20 Jul. 2021)) it was 48.62 mg/mL; in series [1] (Day 14 (29 Jul. 2021)), 48.09 mg/mL; in series [1] (Day 28 (12 Aug. 2021)), 47.12 mg/mL; in series [1] (Week 5 (19 Aug. 2021)), 48.35 mg/mL. Moreover, the “Cannabinoid concentration in NTI164” value in series [1] (Week 6 (27 Aug. 2021)) was 47.56 mg/mL; in series [1] (Week 32 (12 Sep. 2022)) it was 47.01 mg/mL.

`C=C(C)[C@@H]1CCC(C)=C[C@H]1c1c(O)cc(CCC)cc1O` [Cannabidivarin (CBDV), Cannabidivarin]: the “Cannabinoid concentration in NTI164” value in series [1] (Day 0 (13 Jul. 2021)) was below 0.1 mg/mL; in series [1] (Day 2 (15 Jul. 2021)), below 0.1 mg/mL; in series [1] (Day 7 (20 Jul. 2021)) it was below 0.1 mg/mL; in series [1] (Day 14 (29 Jul. 2021)), below 0.1 mg/mL; in series [1] (Day 28 (12 Aug. 2021)), below 0.1 mg/mL; in series [1] (Week 5 (19 Aug. 2021)), 0.10 mg/mL. Besides, the “Cannabinoid concentration in NTI164” value in series [1] (Week 6 (27 Aug. 2021)) was below 0.1 mg/mL; in series [1] (Week 32 (12 Sep. 2022)), 0.13 mg/mL.

In the case of `CCCCCc1cc(O)c(C/C=C(\C)CCC=C(C)C)c(O)c1` [Cannabigerol (CBG), Cannabigerol], the “Cannabinoid concentration in NTI164” value in series [1] (Day 0 (13 Jul. 2021)) was 5.21 mg/mL; in series [1] (Day 2 (15 Jul. 2021)), 5.23 mg/mL; in series [1] (Day 7 (20 Jul. 2021)), 5.14 mg/mL; in series [1] (Day 14 (29 Jul. 2021)) it was 5.1 mg/mL; in series [1] (Day 28 (12 Aug. 2021)), 5.1 mg/mL; in series [1] (Week 5 (19 Aug. 2021)), 5.30 mg/mL. Also, the “Cannabinoid concentration in NTI164” value was determined as 5.28 mg/mL in series [1] (Week 6 (27 Aug. 2021)) and 5.12 mg/mL in series [1] (Week 32 (12 Sep. 2022)).

Turning to `CCCCCc1cc(O)c(C/C=C(\C)CCC=C(C)C)c(O)c1C(=O)O` [Cannabigerol Acid(CBG-A), Cannabigerol Acid], the “Cannabinoid concentration in NTI164” value in series [1] (Day 0 (13 Jul. 2021)) amounted to 1.07 mg/mL; in series [1] (Day 2 (15 Jul. 2021)) it was 1.18 mg/mL; in series [1] (Day 7 (20 Jul. 2021)) it was 1.20 mg/mL; in series [1] (Day 14 (29 Jul. 2021)), 1.19 mg/mL; in series [1] (Day 28 (12 Aug. 2021)), 0.81 mg/mL; in series [1] (Week 5 (19 Aug. 2021)) it was 1.08 mg/mL. Further, the entries for the “Cannabinoid concentration in NTI164” value in series [1] (Week 6 (27 Aug. 2021)) and in series [1] (Week 32 (12 Sep. 2022)) were 1.00 mg/mL and 1.05 mg/mL, respectively.

Consider `CCCCCc1cc(O)c2c(c1)OC(C)(C)c1ccc(C)cc1-2` [Cannabinol (CBN), Cannabinol], for which the “Cannabinoid concentration in NTI164” value in series [1] (Day 0 (13 Jul. 2021)) is on record as 2.32 mg/mL; in series [1] (Day 2 (15 Jul. 2021)) it was 2.54 mg/mL; in series [1] (Day 7 (20 Jul. 2021)), 2.48 mg/mL; in series [1] (Day 14 (29 Jul. 2021)), 2.33 mg/mL; in series [1] (Day 28 (12 Aug. 2021)), 2.56 mg/mL; in series [1] (Week 5 (19 Aug. 2021)), 2.22 mg/mL. Also, the “Cannabinoid concentration in NTI164” value was 2.27 mg/mL in series [1] (Week 6 (27 Aug. 2021)) and 2.21 mg/mL in series [1] (Week 32 (12 Sep. 2022)).

In the case of `CCCCCc1cc(O)c2c(c1)OC(C)(C)[C@@H]1CC=C(C)C[C@@H]21` [DELTA-8-THC (D8-THC), DELTA-8-THC], the “Cannabinoid concentration in NTI164” value in series [1] (Day 0 (13 Jul. 2021)), in series [1] (Day 2 (15 Jul. 2021)), in series [1] (Day 7 (20 Jul. 2021)), in series [1] (Day 14 (29 Jul. 2021)), in series [1] (Day 28 (12 Aug. 2021)) and in series [1] (Week 5 (19 Aug. 2021)) was below 0.1 mg/mL each time. In addition, the “Cannabinoid concentration in NTI164” value in series [1] (Week 6 (27 Aug. 2021)) and in series [1] (Week 32 (12 Sep. 2022)) was below 0.1 mg/mL each time.

With `CCCCCc1cc(O)c2c(c1)OC(C)(C)[C@@H]1CCC(C)=C[C@@H]21` [Tetrahydrocannabinol (D9-THC), Tetrahydrocannabinol], the “Cannabinoid concentration in NTI164” value is recorded as below 0.1 mg/mL in series [1] (Day 0 (13 Jul. 2021)); below 0.1 mg/mL in series [1] (Day 2 (15 Jul. 2021)); below 0.1 mg/mL in series [1] (Day 7 (20 Jul. 2021)); below 0.1 mg/mL in series [1] (Day 14 (29 Jul. 2021)); below 0.1 mg/mL in series [1] (Day 28 (12 Aug. 2021)); 0.14 mg/mL in series [1] (Week 5 (19 Aug. 2021)). Also, the “Cannabinoid concentration in NTI164” value is below 0.1 mg/mL in series [1] (Week 6 (27 Aug. 2021)) and 0.11 mg/mL in series [1] (Week 32 (12 Sep. 2022)).

On to `CCCc1cc(O)c2c(c1)OC(C)(C)[C@@H]1CCC(C)=C[C@@H]21` [Tetrahydrocannabivarin (THCV), Tetrahydrocannabivarin], for which the “Cannabinoid concentration in NTI164” value in series [1] (Day 0 (13 Jul. 2021)), in series [1] (Day 2 (15 Jul. 2021)), in series [1] (Day 7 (20 Jul. 2021)), in series [1] (Day 14 (29 Jul. 2021)), in series [1] (Day 28 (12 Aug. 2021)) and in series [1] (Week 5 (19 Aug. 2021)) was below 0.1 mg/mL in each case. Also, the “Cannabinoid concentration in NTI164” value in series [1] (Week 6 (27 Aug. 2021)) and in series [1] (Week 32 (12 Sep. 2022)) was below 0.1 mg/mL in each case.
